pIC50: −log10 of the molar value.

The source of these data is US20240254117A1, “PYRIMIDO-HETEROCYCLIC COMPOUNDS, AND PREPARATION METHOD THEREFOR AND USE THEREOF” (SHANGHAI RINGENE BIOPHARMA CO., LTD., priority 2020, published 2024).

The test system of one test is pERK. Put plainly: p-ERK level in PC9 cells (AlphaLISA SureFire Ultra p-ERK1/2). The format is cell-based. Conditions: Homo sapiens, PC-9, 1 h, read-out: SOS1 pERK IC50. As to the method:
PC9 cells were seeded in 384-well cell culture plate (40 μL/well) according to a certain concentration and placed in a cell culture incubator with 37° C. and 5% CO2 overnight. On the next day, the plate was added with serially diluted test compounds (5 concentrations, 3-fold dilution, the highest concentration was 10 uM) for 1 hour, and then the lysate containing protease and phosphatase inhibitor was added to lyse the cells-extracted proteins, cellular pERK levels were measured using the AlphaLISASureFire Ultra p ERK1/2 assay kit (PerkinElmer). The standard AlphaLISA settings on the Envision plate reader (PerkinElmer) was used to read the signal. Raw data were analyzed in Excel (Microsoft) and Prism (GraphPad). The signal was plotted against the common logarithm of compound concentration and IC50 was calculated by fitting a four parameter non-linear regression curve.
Regarding `CC(=O)N1CCC(O)(c2cc3c(N[C@H](C)c4cc(N)cc(C(F)(F)F)c4)nc(C)nc3n3ccnc23)CC1` [Example 85, (R)-1-(4-(4-((1-(3-amino-5-(trifluoromethyl)phenyl)ethyl)amino)-2-methylimidazole [1′,2′:1,6]pyrido [2,3-d]pyrimidin-6-yl)-4-hydroxypiperidin-1-yl) ethyl-1-one], the pIC50 is greater than 6.00. Consider `COC1(c2cc3c(N[C@H](C)c4cc(N)cc(C(F)(F)F)c4)nc(C)nc3n3ccnc23)CC2CCC(C1)N2C(=O)C(C)C` (stereo partly shown) [Example 91], for which the pIC50 is greater than 6.00. Regarding `COC1(c2cc3c(N[C@H](C)c4cc(N)cc(C(F)(F)F)c4)nc(C)nc3n3ccnc23)CC2CCC(C1)N2C` (stereo partly shown) [Example 92], the pIC50 was greater than 6.00. As to `COC1(c2cc3c(N[C@H](C)c4cc(N)cc(C(F)(F)F)c4)nc(C)nc3n3ccnc23)CC2CCC(C1)N2C(C)C` (stereo partly shown) [Example 93], the pIC50 is greater than 6.00.

Still in this test, the particulars now being: Homo sapiens, PC-9; PC9 cells, 1 hour compound treatment; read-out: SOS1 pERK IC50.
`COC1(c2cc3c(N[C@H](C)c4cc(N)cc(C(F)(F)F)c4)nc(C)nc3n3ccnc23)CCOCC1` [Example 75]: the pIC50 was greater than 6.00.

Turning to `COC1(c2cc3c(N[C@H](C)c4cc(N)cc(C(F)(F)F)c4)nc(C)nc3n3ccnc23)CCN(C(C)=O)CC1` [Example 76], the pIC50 was greater than 6.00. On to `COC1(c2cc3c(N[C@H](C)c4cc(N)cc(C(F)(F)F)c4)nc(C)nc3n3ccnc23)CCS(=O)(=O)CC1` [Example 77], for which the pIC50 was greater than 6.00. Take `Cc1nc(N[C@H](C)c2cc(N)cc(C(F)(F)F)c2)c2cc(C3(C#N)CCS(=O)(=O)CC3)c3nccn3c2n1` [Example 78]: the pIC50 was greater than 6.00. As for `COC1(c2cc3c(N[C@H](C)c4cccc(C(F)(F)F)c4C)nc(C)nc3n3ccnc23)CCOCC1` [Example 79], the pIC50 is greater than 6.00. Same read-out and setting: next, `Cc1nc(N[C@H](C)c2cccc(C(F)(F)F)c2C)c2cc(C3(C#N)CCS(=O)(=O)CC3)c3nccn3c2n1` [Example 80]: greater than 6.00; `COC1(c2cc3c(N[C@H](C)c4cccc(C(F)(F)F)c4C)nc(C)nc3n3ccnc23)CCN(C(C)C)CC1` [Example 81]: greater than 6.00; `COC1(c2cc3c(N[C@H](C)c4cc(N)cc(C(F)(F)F)c4)nc(C)nc3n3ccnc23)CCN(C(=O)C(C)C)CC1` [Example 89]: greater than 6.00. `Cc1nc(N[C@H](C)c2cc(N)cc(C(F)(F)F)c2)c2cc(C3(C#N)CCN(C(=O)C(C)C)CC3)c3nccn3c2n1` [Example 90]: the pIC50 was greater than 6.00.
